Experimental data published in patent publication US20070212690A1, “Folate Antagonists Having Improved Selectivity” (Serenex, Inc., priority 2003, published 2007).

Columns and labels:
DHFR = experiment: Elution of purine-binding proteins from ATP-Sepharose column with the compound; parameters: species or system porcine liver, porcine lidney, HeLa cells, whole mice; details: lysate on ATP-Sepharose; methotrexate 10 nM to 500 μM; SDS gel, silver stain, MALDI
Procedure: (§1) Molecular targets for the folate antagonist methotrexate were identified as follows. Cell or tissue lysates were produced from porcine liver, porcine lidney, HeLa cells, and whole mice. This lysate was run over an ATP-Sepharose™ column in order to extract all purine-binding proteins. […] The ATP-Sepharose™ washed several times, and then eluted with methotrexate at concentrations ranging from 10 nM to 500 μM to identify proteins that bound to this compound. The eluted fractions were run on a 1-dimensional SDS polyacrylamide gel. The eluted proteins were then stained with silver stain, cut out of the gel, and identified using matrix-assisted laser deionization/ionization (MALDI). […] The experiment was also repeated using folate to elute the purine binding proteome from the ATP-Sepharose column.

glutathione synthase = experiment: as above; parameters: species or system porcine liver, porcine lidney, HeLa cells, whole mice; details: lysate on ATP-Sepharose; methotrexate 10 nM to 500 μM; SDS gel, silver stain, MALDI
Procedure: as §1

pyruvate carboxylase = experiment: as above; parameters: species or system porcine liver, porcine lidney, HeLa cells, whole mice; details: lysate on ATP-Sepharose; methotrexate 10 nM to 500 μM; SDS gel, silver stain, MALDI
Procedure: as §1

[1] = test system: propionyl-CoA carboxylase; experiment: as above; parameters: species or system porcine liver, porcine lidney, HeLa cells, whole mice; details: lysate on ATP-Sepharose; methotrexate 10 nM to 500 μM; SDS gel, silver stain, MALDI
Procedure: as §1

biotin carboxylase = experiment: as above; parameters: species or system porcine liver, porcine lidney, HeLa cells, whole mice; details: lysate on ATP-Sepharose; methotrexate 10 nM to 500 μM; SDS gel, silver stain, MALDI
Procedure: (§2) Molecular targets for the folate antagonist methotrexate were identified as follows. Cell or tissue lysates were produced from porcine liver, porcine lidney, HeLa cells, and whole mice. This lysate was run over an ATP-Sepharose™ column in order to extract all purine-binding proteins. […] The ATP-Sepharose™ washed several times, and then eluted with methotrexate at concentrations ranging from 10 nM to 500 μM to identify proteins that bound to this compound. The eluted fractions were run on a 1-dimensional SDS polyacrylamide gel. The eluted proteins were then stained with silver stain, cut out of the gel, and identified using matrix-assisted laser deionization/ionization (MALDI).

acetyl-CoA carboxylase = experiment: as above; parameters: species or system porcine liver, porcine lidney, HeLa cells, whole mice; details: lysate on ATP-Sepharose; methotrexate 10 nM to 500 μM; SDS gel, silver stain, MALDI
Procedure: as §2

[2] = test system: methylcrotonyl-CoA carboxylase; experiment: as above; parameters: species or system porcine liver, porcine lidney, HeLa cells, whole mice; details: lysate on ATP-Sepharose; methotrexate 10 nM to 500 μM; SDS gel, silver stain, MALDI
Procedure: as §2

[3] = test system: the same proteins that were eluted from ATP-Sepharose with methotrexate; experiment: Elution of lysate proteins from methotrexate covalently linked to agarose; type: binding, porcine liver, porcine lidney, HeLa cells, whole mice; details: lysates applied to methotrexate covalently linked to agarose
Procedure: as §2

GART = experiment: Elution of purine-binding proteins from ATP-Sepharose column with the compound; details: lysate on ATP-Sepharose; methotrexate 10 nM to 500 μM; SDS gel, silver stain, MALDI
Procedure: as §1

CN(Cc1cnc2nc(N)nc(N)c2n1)c1ccc(C(=O)N[C@@H](CCC(=O)O)C(=O)O)cc1 [methotrexate]
DHFR eluted from ATP-Sepharose by the compound (indicates binding) (DHFR): eluted | glutathione synthase eluted from ATP-Sepharose by the compound (indicates binding) (glutathione synthase): eluted | pyruvate carboxylase eluted from ATP-Sepharose by the compound (indicates binding) (pyruvate carboxylase): eluted | propionyl-CoA carboxylase eluted from ATP-Sepharose by the compound (indicates binding) [1]: eluted | biotin carboxylase eluted from ATP-Sepharose by the compound (indicates binding) (biotin carboxylase): eluted | acetyl-CoA carboxylase eluted from ATP-Sepharose by the compound (indicates binding) (acetyl-CoA carboxylase): eluted | methylcrotonyl-CoA carboxylase eluted from ATP-Sepharose by the compound (indicates binding) [2]: eluted | same proteins eluted from methotrexate-agarose with methotrexate (confirmation of targets) [3]: also eluted from methotrexate agarose with methotrexate | GART eluted from ATP-Sepharose by the compound (indicates binding) (GART): eluted
